Data published in patent US5084450A, “Novel steroids” (Roussel Uclaf, priority 1990, dated 1992).

Key:
[1] = molecular target: T1, specific receptor of progesterone (Oryctolagus cuniculus, UniProt P06186); assay: Hormonal receptor method: displacement of tritiated product R from rabbit uterus cytosol (relative binding affinity vs progesterone); details: for RBA 2 hours / RBA 24 hours: relative affinity, tritiated product R; for RBA 2 hours: progesterone = 100, incubation at 0° C. for 2 hours; for RBA 24 hours: progesterone = 100, incubation at 0° C. for 24 hours
T1 construct: the uteri were removed and homogenized; from tissue; host or cells: rabbit uterus, cytosol (105,000 g supernatant), estradiol-treated impuberal rabbits
T1 sequence (P06186 1-930): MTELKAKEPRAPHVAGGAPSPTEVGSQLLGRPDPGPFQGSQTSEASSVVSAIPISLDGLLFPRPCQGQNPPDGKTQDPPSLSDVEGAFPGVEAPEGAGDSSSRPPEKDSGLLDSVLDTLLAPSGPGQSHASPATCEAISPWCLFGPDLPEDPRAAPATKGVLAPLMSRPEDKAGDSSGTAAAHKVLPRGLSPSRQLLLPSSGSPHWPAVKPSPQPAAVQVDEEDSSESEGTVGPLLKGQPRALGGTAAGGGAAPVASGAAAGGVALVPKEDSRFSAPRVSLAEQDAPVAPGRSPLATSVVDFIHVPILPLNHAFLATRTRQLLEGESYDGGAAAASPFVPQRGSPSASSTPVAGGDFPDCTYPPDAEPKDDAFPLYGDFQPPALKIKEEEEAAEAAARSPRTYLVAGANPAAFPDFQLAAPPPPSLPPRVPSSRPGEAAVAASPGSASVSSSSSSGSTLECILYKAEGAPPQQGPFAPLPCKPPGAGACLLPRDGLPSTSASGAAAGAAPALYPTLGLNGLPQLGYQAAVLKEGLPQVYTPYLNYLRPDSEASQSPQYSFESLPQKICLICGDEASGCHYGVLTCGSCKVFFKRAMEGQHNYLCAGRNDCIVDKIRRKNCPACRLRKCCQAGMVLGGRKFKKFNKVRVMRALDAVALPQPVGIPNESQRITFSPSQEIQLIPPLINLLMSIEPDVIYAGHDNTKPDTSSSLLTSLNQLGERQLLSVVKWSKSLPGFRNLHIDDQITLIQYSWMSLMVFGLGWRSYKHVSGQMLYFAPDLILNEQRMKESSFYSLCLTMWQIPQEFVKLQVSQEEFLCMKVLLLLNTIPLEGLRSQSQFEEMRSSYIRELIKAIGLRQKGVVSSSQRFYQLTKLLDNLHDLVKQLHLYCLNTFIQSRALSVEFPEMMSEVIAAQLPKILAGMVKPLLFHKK
Method: a) The progestomimetic activity of the products of Examples 1 and 2 was studied by the method of hormonal receptors described by RAYNAUD et al in "J. Ster. BIOCHEM" 1975, Vol. 6, 615 to 622 and in "Physiology and Genetics of Reproduction", 1975 part A p. 143 to 160. The technique was as follows: […] of estradiol were administered to impuberal rabbits per-cutaneously. Five days after this treatment, the animals were killed, the uteri were removed and homogenized in a 10 mM tromethamine, 0.25 M saccharose, HCl pH 7.4 buffer. The homogenate was centrifuged at 105,000 g for one hour and the supernatant liquid or cytosol was adjusted to have a dilution of 1/50 (weight/volume). Tubes with the same volume of cytosol were incubated at 0° C. for two hours with a fixed concentration of tritiated 17,21-dimethyl-19-nor- Δ^4,9 -pregandiene-3,20-dione, called hereafter tritiated product R, in the presence or not of an increasing concentration of radio-inert 17,21-dimethyl-19-nor-Δ^4,9 -pregnadiene-3,20-dione called hereafter cold product R, of progesterone or of product under test. After two hours and after 24 hours, the radioactivity of bound tritiated product R was determined by the technique of absorption with cabon-dextran (1.25%-0.625%).
Then the following was traced: the straight line parallel to the axis of the abscesses, of the coordinate [formula]
Bo being the maximum quantity of bound tritiated product R, measured in the incubate containing only tritiated product R, Bmin being the minimum quantity of bound tritiated product R (non-specific), measured in the incubate containing tritiated product R plus a large excess of cold product R (2500 10^-9 M), the curves representing the percentages of bound tritiated product [formula] as a function of the logarithm of the concentrations of added cold product.
The intersections of the straight line I50 and the curves allowed the values CP and CX to be determined. CP: concentration of cold progesterone which inhibited by 50% the fixing of the tritiated product R. CX: concentration of the product under test which inhibited by 50% the fixing of the tritiated product R.
The relative affinity of the product under test or RBA is given by the formula

[2] = test system: impuberal rabbits; assay: CLAUBERG test (lacy proliferation of the endometrium); assay type: in vivo, rabbit
Method: b) The progestomimetic activity of the product of Example 2 was determined by the CLAUBERG test. According to this test, groups of three impuberal rabbits were sensitized before-hand by the administration of estradiol sub-cutaneously for five days at a daily dose of 5 micrograms. Two days later, they were treated daily for five days with the medicament under study sub-cutaneously.
The product of Example 2 was used in solution in sesame oil containing 5% benzyl alcohol.

Compound	affinity for the specific receptor of progesterone (conclusion in words) [1]	RBA 2 hours [1]	RBA 24 hours [1]	Mac Phail UNITS ([2]; 0.3 μg/rabbit/day sub-cutaneously for five days, estradiol-sensitized impuberal rabbits, sesame oil with 5% benzyl alcohol) [Mac Phail units]	Mac Phail UNITS ([2]; 1 μg/rabbit/day sub-cutaneously for five days, estradiol-sensitized impuberal rabbits, sesame oil with 5% benzyl alcohol) [Mac Phail units]	Mac Phail UNITS ([2]; 3 μg/rabbit/day sub-cutaneously for five days, estradiol-sensitized impuberal rabbits, sesame oil with 5% benzyl alcohol) [Mac Phail units]	progestomimetic activity (conclusion in words) ([2]; CLAUBERG test, sub-cutaneous, impuberal rabbits)	Mac Phail UNITS ([2]; daily dose of 10 micrograms, sub-cutaneously, impuberal rabbits) [Mac Phail units]
C[C@]12CC[C@H]3[C@@H](CCC4=CC(=O)CC[C@@H]43)[C@@H]1CC[C@@]21CCCC1=O [Example 1, Spiro (cyclopentane-1,17'β-Δ4'-estrene)-2,3'-dione]	very strong affinity	312	1012	–	–	–	–	–
C[C@]12CCC3=C4CCC(=O)C=C4CC[C@H]3[C@@H]1CC[C@@]21CCCC1=O [Example 2, spiro (cyclopentane-1,17'β -Δ4,9-estradiene)-2,3'-dione]	very strong affinity	344	912	0.5	1.8	2.8	very strong progestomimetic activity	2.8
